Molecules are shown by their SMILES. Values joined by “and” are separate entries in the source; they are usually repeats but may differ in a detail not shown here. Equal entries are not always repeated.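 48-hour exposure; five concentrations; linearly interpolated endpoints. At the TGI there is no net growth.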 Where only a bound is given, the exact number is not on record here.

Test systems include A549 NSCLC; ACHN renal; CCRF-CEM leukemia; MOLT-4 leukemia; NCI-H226 lung; NCI-H522 lung; OVCAR-5 ovarian; SK-MEL-2 melanoma; SK-OV-3 ovarian; T-47D breast; UACC-257 melanoma.
What all share (test): NCI-60 cell line screen, 48 h

For the compound `O=c1[nH]c(NCc2ccc(Cl)cc2)nc2nc[nH]c12`, the TGI in the assay on A549 NSCLC, in the assay with ACHN renal, in the assay on CCRF-CEM leukemia, in the assay on MOLT-4 leukemia, with NCI-H226 lung and in the assay on NCI-H522 lung was above 100 µM each time. Moreover, the TGI with OVCAR-5 ovarian, in the assay on SK-MEL-2 melanoma, with SK-OV-3 ovarian, with T-47D breast and in the assay on UACC-257 melanoma was above 100 µM in each case.

As to `O=C(/C(=C\I)c1ccccc1)c1ccccc1`, the TGI was determined as 49.2 µM in the assay with A549 NSCLC; 25.7 µM with ACHN renal; 54 µM with CCRF-CEM leukemia; 86.5 µM in the assay with MOLT-4 leukemia; 53.5 µM in the assay on NCI-H226 lung; 22.5 µM in the assay with NCI-H522 lung. Further, the TGI in the assay with OVCAR-5 ovarian worked out at 33.1 µM; in the assay with SK-MEL-2 melanoma, 21.4 µM; with SK-OV-3 ovarian it was 32.3 µM; in the assay with T-47D breast it was 6.02 µM; in the assay with UACC-257 melanoma, 15.8 µM.

Take `O=C1CSC(c2cccc(Cl)c2)N1c1ccc(-c2ccc(-n3c(-c4ccccc4)nc4ccccc4c3=O)cc2)cc1` (centres undefined): the TGI in the assay with A549 NSCLC, in the assay with ACHN renal, with CCRF-CEM leukemia, with MOLT-4 leukemia, in the assay on NCI-H226 lung and in the assay on NCI-H522 lung was above 100 µM each time. Besides, the TGI with OVCAR-5 ovarian was above 100 µM; in the assay with SK-MEL-2 melanoma, above 100 µM; with SK-OV-3 ovarian, above 100 µM; in the assay on T-47D breast, 97.9 µM; in the assay on UACC-257 melanoma it was above 100 µM.

As to `COc1cc2c(cc1OC)C(=O)/C(=C/c1cc(C)cc(C)c1)C2`, the TGI was 18 µM in the assay with A549 NSCLC; above 100 µM with ACHN renal; above 90.3 µM in the assay with MOLT-4 leukemia; 0.617 µM in the assay on NCI-H226 lung; above 46.8 µM in the assay with NCI-H522 lung; above 86.4 µM in the assay on OVCAR-5 ovarian. Further, the TGI is 44.4 µM in the assay on SK-MEL-2 melanoma, above 32.9 µM in the assay with SK-OV-3 ovarian, 45.6 µM in the assay with T-47D breast and above 100 µM in the assay with UACC-257 melanoma.

As for `COc1cc2c(/C=C3/C(=O)N(C)c4ccc(O)cc43)c(Cl)[nH]c2cc1C`, the TGI stood at 16.9 µM in the assay with A549 NSCLC; 16.8 µM in the assay with ACHN renal; 0.784 µM in the assay with MOLT-4 leukemia; 16.2 µM with NCI-H226 lung; 16.6 µM in the assay on NCI-H522 lung; 21.6 µM in the assay on OVCAR-5 ovarian. Besides, the TGI in the assay with SK-MEL-2 melanoma came to 17.9 µM; in the assay with SK-OV-3 ovarian, 3.13 µM; in the assay with T-47D breast, 5.93 µM; in the assay on UACC-257 melanoma, 23.5 µM.

As for `CCN1CCC(CNC(=O)c2ccc(N)cc2)N1CC` (centres undefined), the TGI in the assay with A549 NSCLC, with ACHN renal, in the assay with CCRF-CEM leukemia, with MOLT-4 leukemia, in the assay with NCI-H226 lung and in the assay on NCI-H522 lung was above 100 µM throughout. For the same compound, the TGI in the assay on OVCAR-5 ovarian, in the assay on SK-MEL-2 melanoma, in the assay on SK-OV-3 ovarian, with T-47D breast and in the assay with UACC-257 melanoma was above 100 µM in each case.

For the compound `CC1=C(C)CC2(C=C(C(C)(C)C)C(=O)C(C(C)(C)C)=C2)SC1`, the TGI was 65.3 µM in the assay on A549 NSCLC; 51 µM with CCRF-CEM leukemia; above 100 µM with MOLT-4 leukemia; 34.4 µM in the assay on NCI-H226 lung; 16.5 µM in the assay on NCI-H522 lung; 35.7 µM in the assay with OVCAR-5 ovarian. In addition, the TGI in the assay on SK-MEL-2 melanoma is 26 µM; with SK-OV-3 ovarian, 71 µM; in the assay on T-47D breast it was 87.3 µM; in the assay with UACC-257 melanoma it was above 100 µM.

With `C=C(Cl)C(Cl)(CCl)CCC(Br)C(C)(C)Br` (centres undefined), the TGI in the assay with A549 NSCLC, in the assay on ACHN renal, in the assay with CCRF-CEM leukemia, in the assay with MOLT-4 leukemia, with NCI-H226 lung and with NCI-H522 lung was above 10 µM in each case. The TGI in the assay with OVCAR-5 ovarian, in the assay on SK-MEL-2 melanoma, in the assay with SK-OV-3 ovarian and with T-47D breast was above 10 µM each time.

Regarding `O=C(SCc1cccc2ccccc12)c1ccc(Cl)cc1`, the TGI in the assay with A549 NSCLC, with ACHN renal, in the assay on CCRF-CEM leukemia, with NCI-H226 lung, in the assay with NCI-H522 lung and with OVCAR-5 ovarian was above 100 µM in each case. Also, the TGI in the assay on SK-MEL-2 melanoma, in the assay with SK-OV-3 ovarian, with T-47D breast and with UACC-257 melanoma was above 100 µM throughout.

Take `Cc1cc2nc3c(C#N)c4c(c(-c5ccc(Cl)cc5)n3c2cc1C)CCC4`: the TGI with A549 NSCLC is above 100 µM; in the assay with ACHN renal it was 59.5 µM; with CCRF-CEM leukemia, 70.7 µM; in the assay on MOLT-4 leukemia, 57.5 µM; with NCI-H226 lung, 41 µM; in the assay on NCI-H522 lung it was 35.4 µM. The TGI was 36 µM in the assay on SK-MEL-2 melanoma, 34.1 µM in the assay with SK-OV-3 ovarian, 52.1 µM in the assay on T-47D breast and 41.4 µM in the assay with UACC-257 melanoma.

For the compound `CCCCOC(=O)C1CC[C@H]2[C@@H]3CCc4cc(OC(=O)c5cccc6c(=O)c7ccccc7[nH]c56)ccc4[C@H]3CC[C@]12C` (some centres undefined), the TGI with A549 NSCLC is 17.6 µM; in the assay on ACHN renal, 15.6 µM; in the assay with MOLT-4 leukemia, 21.7 µM; with NCI-H226 lung, 20.6 µM; in the assay on NCI-H522 lung, 16.9 µM; with OVCAR-5 ovarian it was 19.8 µM. The TGI stood at 18.5 µM with SK-MEL-2 melanoma, 18 µM in the assay on SK-OV-3 ovarian, 14.1 µM with T-47D breast and 15.3 µM in the assay with UACC-257 melanoma.

Consider `CN(C)c1ccc(/C=C/c2sc3ccccc3[n+]2C)cc1`, for which the TGI with A549 NSCLC was 16.7 µM and 17.2 µM; in the assay on ACHN renal it was 9.85 µM and 7.49 µM; with MOLT-4 leukemia it was 0.957 µM and 1.31 µM; in the assay on NCI-H226 lung, 15.4 µM and 7.31 µM; in the assay with NCI-H522 lung it was 11.1 µM and 7.29 µM; in the assay with OVCAR-5 ovarian it was 26.6 µM and 61.5 µM. Besides, the TGI with SK-MEL-2 melanoma was 8.88 µM and 5.81 µM; in the assay with SK-OV-3 ovarian it was 17.1 µM; in the assay on T-47D breast, 11.1 µM and 30.5 µM; with UACC-257 melanoma, 7.85 µM and 11.9 µM.

The values are drawn from PubChem BioAssay (NCI).
